Structures are written as SMILES.

`CCCOc1ccccc1-c1nc2nnc(SC)nc2c(=O)[nH]1` [Example 75, 5,6-Dihydro-3-methylthio-5-oxo-7-(2-propoxyphenyl)pyrimido[5,4-e][1,2,4]triazine] came in with a melting point of 195 to 197 °C. The value for `CCCOc1ccccc1-c1nc2nc(SC)nnc2c(=O)[nH]1` [Example 79, 3-Methylthio-8-oxo-6-(2-propoxyphenyl)-7,8-dihydropyrimido[4,5-e][1,2,4]triazine] was 247 to 249 °C; that for `CCCc1ccnc2c(=O)[nH]c(-c3cc(S(=O)(=O)NC)ccc3OCC)nc12` [Example 6, 2-[2-Ethoxy-5-(methylsulphamoyl)phenyl]-8-n-propylpyrido[3,2-d]pyrimidin-4(3H)-one] was 216 to 219 °C; that for `CCCc1ccnc2c(=O)[nH]c(-c3cc(S(=O)(=O)N4CCNCC4)ccc3OCC)nc12` [Example 3, 2-[2-Ethoxy-5-(1-piperazinylsulphonyl)phenyl]-8-n-propylpyrido[3,2-d]pyrimidin-4(3H)-one] was 178 to 180 °C. The value for `CCCc1ccnc2c(=O)[nH]c(-c3cc(S(=O)(=O)N4CCC(C(=O)OCC)CC4)ccc3OCC)nc12` [Example 4, 2-[2-Ethoxy-5-(4-ethoxycarbonylpiperidinosulphonyl)phenyl]-8-n-propylpyrido[3,2-d]pyrimidin-4(3H)-one] was 204 to 205 °C.

For the origin of these results see patent US6391885B1, “Method of treating a patient having precancerous lesions with phenyl cycloamino pyrimidinone derivatives” (Cell Pathways, Inc., priority 1995, dated 2002).
